Measured values published in patent US20170304228A1, “NEW INDICATION OF CINACALCET HCL PHARMACEUTICAL COMPOSITION FOR TREATING CANCER” (LAUNX BIOMEDICAL CO., LTD., priority 2014, published 2017).
Counter-ions that a name gives are not always drawn. Like-named read-outs stand apart in the source and are kept apart here.

Legend:
Assay type in all cases: cell-based
[1] = test system: BCC; experiment: Cell viability analysis (WST-1), BCC; conditions: read-out: survival rate (viability) of cells
Protocol: (§1) The cell numbers were counted and reseed as 2×10^6 in culture plate/flask. Then, the culture medium were added to a volume of 10 ml, and the cells were cultured for 2-3 days. Then, the cells were suspended for loading into 96-well plates. The number of cells was 3000 and the volume of the culture medium was 100 μl each well.
(§2) Removing the original culture medium from 96-well plate. Then add 100 μl of commercially drug at a concentration of 10 μM per well. After 72 hours, add the diluted WST-1 reagent to the well with 100 μl/well, and the diluted WST-1 reagent was acquired from the dilution of 9:1 medium and WST-1 stock reagent. Finally, the total volume of each well was 200 μl/well. Culture the 96-well plate at 37° C. for 30 to 90 minutes. Detecting and calculate the survival rate of each cancer cells with an ELISA reader at OD450 nm. The lower viability of cancer cells represents better inhibition effect via the Cinacalcet HCl drug. Otherwise, the higher viability of cancer cells represents worse inhibition effect via the Cinacalcet HCl drug.
(§3) This inhibition test of Cinacalcet HCl on other cancer cells were using osteosarcoma cell line U2OS (Table 14), skin cancer cell lines A375 and BCC (Table 15). The inhibitory tests of Cinacalcet HCl were performed 4 times for each cell lines and then the average value of the inhibitory tests was calculated.

[2] = test system: C-33A; experiment: Cell viability analysis (WST-1), C-33A; conditions: Homo sapiens, read-out: survival rate (viability) of cells
Protocol: as §1, §2
(§4) This inhibition test of Cinacalcet HCl on abdominal-related cancer cells were using bladder cancer cell line TSGH and T24 (Table 3), cervical cancer cell lines HeLa and C-33A (Table 4), renal cancer cell line 786-O (Table 5). The inhibitory tests of Cinacalcet HCl were performed 4 times for each cell lines and then the average value of the inhibitory tests was calculated.

[3] = test system: H1650; experiment: Cell viability analysis (WST-1), H1650; conditions: Homo sapiens, read-out: survival rate (viability) of cells
Protocol: as §1
as §2, with “Culture the 96-well plate at 37° C. for 30 to 90 minutes.” left out
This inhibition test of Cinacalcet HCl on pleural-related cancer cells were using two lung cancer cell lines A549 and H1650. The inhibitory tests of Cinacalcet HCl were performed 4 times for each cell lines and then the average value of the inhibitory tests was calculated.

[4] = test system: U2OS; experiment: Cell viability analysis (WST-1), U2OS; conditions: Homo sapiens, read-out: survival rate (viability) of cells
Protocol: as §1, §2, §3

[5] = test system: ovarian cancer cells; experiment: Summary of cell viability, ovarian cancer cells; conditions: 72 hours, read-out: Inhibitory effect
Protocol: as §1, §2
(§5) Cinacalcet HCl is having different inhibitory effect on different tumor cell type even in the same cancer. […] (FIG. 1)

[6] = test system: various cancer cells; experiment: Inhibitory effect on various cancer cells; conditions: FIG. 1
Protocol: as §2, §5

[7] = test system: hepatic cancer cells; experiment: Summary of cell viability, hepatic cancer cells; conditions: 72 hours, read-out: Inhibitory effect
Protocol: as §1, §2, §5

[8] = test system: 786-O; experiment: Cell viability analysis (WST-1), 786-O; conditions: Homo sapiens
Protocol: as §1, §2, §4

[9] = test system: MKN-45; experiment: Cell viability analysis (WST-1), MKN-45; conditions: Homo sapiens, read-out: survival rate (viability) of cells
Protocol: as §1, §2
This inhibition test of Cinacalcet HCl on gastrointestinal tract-related cancer cells were using gastric cancer cell lines AGS and MKN-45 (Table 9), hepatic cancer cell lines HepG2 and Hep3B (Table 10), colorectal cancer cell lines HCT116-wt and LoVo (Table 11), pancreatic cancer cell line AsPC-1 and BxPC-3(Table 12), tongue cancer cell line SAS (Table 13). The inhibitory tests of Cinacalcet HCl were performed 4 times for each cell lines and then the average value of the inhibitory tests was calculated.

[10] = test system: pancreatic cancer cells; experiment: Summary of cell viability, pancreatic cancer cells; conditions: 72 hours, read-out: Inhibitory effect
Protocol: as §1, §2, §5

[11] = test system: MCF7; experiment: Cell viability analysis (WST-1), MCF7; conditions: Homo sapiens, read-out: survival rate (viability) of cells
Protocol: as §1, §2
(§6) This inhibition test of Cinacalcet HCl on endocrine-related cancer cells were using prostate cancer cell lines PC-3 and LNCap (Table 6), breast cancer cell lines MCF7 and MDA-MB-231 (Table 7), and ovarian cancer cell lines NIH-OVCAR-3 and TOV-21G (Table 8). The inhibitory tests of Cinacalcet HCl were performed 4 times for each cell lines and then the average value of the inhibitory tests was calculated.

[12] = test system: PC-3; experiment: Cell viability analysis (WST-1), PC-3; conditions: Homo sapiens, read-out: survival rate (viability) of cells
Protocol: as §1, §2, §6

[13] = test system: skin cancer cells; experiment: Summary of cell viability, skin cancer cells; conditions: 72 hours, read-out: Inhibitory effect
Protocol: as §1, §2, §5

Q: What does the source list for `C[C@@H](NCCCc1cccc(C(F)(F)F)c1)c1cccc2ccccc12` [Cinacalcet HCl, Cinacalcet hydrochloride]?
A: viability at 10 µM ([1]; 72 h, average of tests): 111%; viability at 10 µM ([1]; 72 hours, test 0602-30 min): 114%; viability at 10 µM ([1]; 72 hours, test 0605-10 min): 106%; viability at 10 µM ([1]; 72 hours, test 0607-10 min): 113%; viability at 10 µM ([2]; 72 h, average of tests): 110%; viability at 10 µM ([2]; 72 hours, test 0524-10 min): 114%; viability at 10 µM ([2]; 72 hours, test 0526-10 min): 119%; viability at 10 µM ([2]; 72 hours, test 0529-10 min): 108%; viability at 10 µM ([2]; 72 hours, test 0531-10 min): 100%; viability at 10 µM ([3]; NCI-H1650, 10 μM, 72 hours, test 1-10 min): 86.8%; viability at 10 µM ([3]; NCI-H1650, 10 μM, 72 hours, test 2-20 min): 67.5%; viability at 10 µM ([3]; NCI-H1650, 10 μM, 72 hours, test 3-20 min): 76.8%; viability at 10 µM ([3]; NCI-H1650, 10 μM, 72 hours, test 4-20 min): 75.2%; viability at 10 µM ([3]; NCI-H1650, 72 h, 10 μM, Average of tests): 76.5%; viability at 10 µM ([4]; 72 h, average of tests): 77.4%; viability at 10 µM ([4]; 72 hours, test 6-26-10 min): 82.6%; viability at 10 µM ([4]; 72 hours, test 6-28-10 min): 86.7%; viability at 10 µM ([4]; 72 hours, test 6-30-10 min): 64.9%; viability at 10 µM ([4]; 72 hours, test 7-3-10 min): 75.3%; viability at 10 µM [5]: 58.7%; inhibitory effect on various cancer cells [6]: significant inhibitory effect and specificity; viability at 10 µM [7]: 102%; viability at 10 µM ([8]; 786-0, 10 μM, 72 hours, test 0524-10 min, read-out: survival rate (viability) of cells): 81.3%; viability at 10 µM ([8]; 786-0, 10 μM, 72 hours, test 0526-10 min, read-out: survival rate (viability) of cells): 71.6%; viability at 10 µM ([8]; 786-0, 10 μM, 72 hours, test 0529-10 min, read-out: survival rate (viability) of cells): 80.2%; viability at 10 µM ([8]; 786-0, 10 μM, 72 hours, test 0531-10 min, read-out: survival rate (viability) of cells): 87.1%; viability at 10 µM ([8]; 786-0, 72 h, 10 μM, average of tests, read-out: survival rate (viability) of cells): 80%; viability at 10 µM ([8]; 786-0, 72 h, summary, Kidney cancer, 10 μM, read-out: Inhibitory effect): 87.5%; viability at 10 µM ([9]; MKN-45, 10 μM, 72 hours, test 0510-10 min): 82.1%; viability at 10 µM ([9]; MKN-45, 10 μM, 72 hours, test 0512-10 min): 102%; viability at 10 µM ([9]; MKN-45, 10 μM, 72 hours, test 0515-10 min): 104%; viability at 10 µM ([9]; MKN-45, 10 μM, 72 hours, test 0517-10 min): 69.1%; viability at 10 µM ([9]; MKN-45, 72 h, 10 μM, average of tests): 89.1%; viability at 10 µM [10]: 82.4%; viability at 10 µM ([11]; MCF7, 10 μM, 72 hours, test 0612-10 min): 87.7%; viability at 10 µM ([11]; MCF7, 10 μM, 72 hours, test 0614-10 min): 75.6%; viability at 10 µM ([11]; MCF7, 10 μM, 72 hours, test 0616-10 min): 82.2%; viability at 10 µM ([11]; MCF7, 10 μM, 72 hours, test 0619-10 min): 77.2%; viability at 10 µM ([11]; MCF7, 72 h, 10 μM, average of tests): 80.7%; viability at 10 µM ([12]; PC-3, 10 μM, 72 hours, test PC-3-0524-10 min): 103%; viability at 10 µM ([12]; PC-3, 10 μM, 72 hours, test PC-3-0526-10 min): 132%; viability at 10 µM ([12]; PC-3, 10 μM, 72 hours, test PC-3-0529-10 min): 120%; viability at 10 µM ([12]; PC-3, 10 μM, 72 hours, test PC-3-0531-10 min): 135%; viability at 10 µM ([12]; PC-3, 72 h, 10 μM, average of tests): 122%; viability at 10 µM [13]: 80%
